Patent publication US11851426B2, “Bicyclic amines as CDK2 inhibitors” (Incyte Corporation, priority 2019, dated 2023)

Target: CDK2/Cyclin E1 (Homo sapiens (Human), UniProt P24941)
Experiment: CDK2/Cyclin E1 HTRF enzyme activity assay
Type: biochemical
Details: 1 mM ATP; CDK2/Cyclin E1 0.25 nM; 60 minutes at room temperature
Method: Example A. CDK2/Cyclin E1 HTRF Enzyme Activity Assay
CDK2/Cyclin E1 enzyme activity assays utilize full-length human CDK2 co-expressed as N-terminal GST-tagged protein with FLAG-Cyclin E1 in a baculovirus expression system (Carna Product Number 04-165). Assays were conducted in white 384-well polystyrene plates in a final reaction volume of 8 μL. CDK2/Cyclin E1 (0.25 nM) was incubated with the compounds of the Examples (40 nL serially diluted in DMSO) in the presence of ATP (50 μM or 1 mM) and 50 nM ULight™-labeled eIF4E-binding protein 1 (THR37/46) peptide (PerkinElmer) in assay buffer (containing 50 mM HEPES pH 7.5, 1 mM EGTA, 10 mM MgCl2, 2 mM DTT, 0.05 mg/mL BSA, and 0.01% Tween 20) for 60 minutes at room temperature. The reactions were stopped by the addition of EDTA and Europium-labeled anti-phospho-4E-BP1 antibody (PerkinElmer), for a final concentration of 15 mM and 1.5 nM, respectively. HTRF signals were read after 1 hour at room temperature on a PHERAstar FS plate reader (BMG Labtech). Data was analyzed with IDBS XLFit and GraphPad Prism 5.0 software using a three or four parameter dose response curve to determine IC50 for each compound.

For `CC(C)Oc1c(-c2cn[nH]c2)ncn2nc(NC3CCN(S(C)(=O)=O)CC3)nc12` [Example 14, 8-isopropoxy-N-(1-(methylsulfonyl)piperidin-4-yl)-7-(1H-pyrazol-4-yl)-[1,2,4]triazolo[1,5-c]pyrimidin-2-amine], the IC50 was ≤ 20 nM.
`C[C@@H]1CN(S(C)(=O)=O)CC[C@@H]1Nc1nc2cnc(-c3cn[nH]c3)c(OC3CC(C(F)F)C3)n2n1` (stereo partly drawn) [Example 108, 5-(3-(Difluoromethyl)cyclobutoxy)-N-((3R,4S)-3-methyl-1-(methylsulfonyl)piperidin-4-yl)-6-(1H-pyrazol-4-yl)-[1,2,4]triazolo[1,5-a]pyrazin-2-amine] was tested, and the IC50 was ≤ 20 nM.
In the case of `CCOc1c(-c2cn[nH]c2)ccn2nc(N[C@H]3CCN(S(=O)(=O)CCCN(C)C)C[C@H]3C)nc12` [Example 28, N-((3R,4S)-1-((3-(dimethylamino)propyl)sulfonyl)-3-methylpiperidin-4-yl)-8-ethoxy-7-(1H-pyrazol-4-yl)-[1,2,4]triazolo[1,5-a]pyridin-2-amine], the IC50 is reported as ≤ 20 nM.
In the case of `C[C@@H]1CN(S(C)(=O)=O)CC[C@@H]1Nc1nc2cnc(-c3cn[nH]c3)c(OC3CC3)n2n1` [Example 109, 5-Cyclopropoxy-N-((3R,4S)-3-methyl-1-(methylsulfonyl)piperidin-4-yl)-6-(1H-pyrazol-4-yl)-[1,2,4]triazolo[1,5-a]pyrazin-2-amine], the IC50 is reported as ≤ 20 nM.
With `[2H]C([2H])([2H])C(Oc1c(-c2cn[nH]c2)ncc2nc(N[C@H]3CCN(S(C)(=O)=O)C[C@H]3C)nn12)C([2H])([2H])[2H]` [Example 138, N-((3R,4S)-3-Methyl-1-(methylsulfonyl)piperidin-4-yl)-5-((propan-2-yl-1,1,1,3,3,3-d6)oxy)-6-(1H-pyrazol-4-yl)-[1,2,4]triazolo[1,5-a]pyrazin-2-amine] the IC50 was ≤ 20 nM.
In the case of `C[C@@H]1CN(S(=O)(=O)C2CC2)CC[C@@H]1Nc1nc2cnc(-c3cn[nH]c3)c(OC3CCOCC3)n2n1` [Example 92, N-((3R,4S)-1-(Cyclopropylsulfonyl)-3-methylpiperidin-4-yl)-6-(1H-pyrazol-4-yl)-5-((tetrahydro-2H-pyran-4-yl)oxy)-[1,2,4]triazolo[1,5-a]pyrazin-2-amine], the IC50 is reported as ≤ 20 nM.
For `C[C@@H]1CN(S(C)(=O)=O)CC[C@@H]1Nc1nc2ccc(-c3cn[nH]c3)c(OCC(F)(F)C(F)F)n2n1` [Example 73, N-((3R,4S)-3-Methyl-1-(methylsulfonyl)piperidin-4-yl)-6-(1H-pyrazol-4-yl)-5-(2,2,3,3-tetrafluoropropoxy)-[1,2,4]triazolo[1,5-a]pyridin-2-amine], the IC50 was ≤ 20 nM.
For `CS(=O)(=O)N1CCC(Nc2nc3ccc(-c4cn[nH]c4)c(OCC(F)F)n3n2)CC1` [Example 80, 5-(2,2-Difluoroethoxy)-N-(1-(methylsulfonyl)piperidin-4-yl)-6-(1H-pyrazol-4-yl)-[1,2,4]triazolo[1,5-a]pyridin-2-amine], the IC50 was ≤ 20 nM.
With `CS(=O)(=O)N1CCC(Nc2nc3c(OCC(F)F)c(-c4cn[nH]c4)ncn3n2)CC1` [Example 45, 8-(2,2-difluoroethoxy)-N-(1-(methylsulfonyl)piperidin-4-yl)-7-(1H-pyrazol-4-yl)-[1,2,4]triazolo[1,5-c]pyrimidin-2-amine] the IC50 was ≤ 20 nM.
In the case of `C[C@@H]1CN(S(C)(=O)=O)CC[C@@H]1Nc1nc2ccc(-c3cn[nH]c3)c(OC3CCOCC3)n2n1` [Example 98, N-((3R,4S)-3-Methyl-1-(methylsulfonyl)piperidin-4-yl)-6-(1H-pyrazol-4-yl)-5-((tetrahydro-2H-pyran-4-yl)oxy)-[1,2,4]triazolo[1,5-a]pyridin-2-amine], the IC50 is reported as ≤ 20 nM.
For `CS(=O)(=O)N1CCC(Nc2nc3cnc(-c4cn[nH]c4)cn3n2)CC1` [Example 8, N-(1-(methylsulfonyl)piperidin-4-yl)-6-(1H-pyrazol-4-yl)-[1,2,4]triazolo[1,5-a]pyrazin-2-amine], the IC50 was ≤ 20 nM.
With `CS(=O)(=O)N1CCC(Nc2nc3c(N4CCC(C(F)(F)F)CC4)c(-c4cn[nH]c4)ccn3n2)CC1` [Example 30, N-(1-(methylsulfonyl)piperidin-4-yl)-7-(1H-pyrazol-4-yl)-8-(4-(trifluoromethyl)piperidin-1-yl)-[1,2,4]triazolo[1,5-a]pyridin-2-amine] the IC50 was ≤ 20 nM.
For `CC(C)COc1c(-c2cn[nH]c2)ccc2nc(N[C@H]3CCN(S(C)(=O)=O)C[C@H]3C)nn12` [Example 70, 5-Isobutoxy-N-((3R,4S)-3-methyl-1-(methylsulfonyl)piperidin-4-yl)-6-(1H-pyrazol-4-yl)-[1,2,4]triazolo[1,5-a]pyridin-2-amine], the IC50 was ≤ 20 nM.
For `CS(=O)(=O)N1CCC(Nc2nc3c(N4CCCC4)c(-c4cn[nH]c4)ncn3n2)CC1` [Example 52, N-(1-(Methylsulfonyl)piperidin-4-yl)-7-(1H-pyrazol-4-yl)-8-(pyrrolidin-1-yl)-[1,2,4]triazolo[1,5-c]pyrimidin-2-amine], the IC50 was ≤ 20 nM.
With `CS(=O)(=O)N1CCC(Nc2nc3cnc(-c4cn[nH]c4)c(OC4CCOC(C(F)(F)F)C4)n3n2)CC1` (stereo not drawn) [Example 119, N-(1-(Methylsulfonyl)piperidin-4-yl)-6-(1H-pyrazol-4-yl)-5-((2-(trifluoromethyl)tetrahydro-2H-pyran-4-yl)oxy)-[1,2,4]triazolo[1,5-a]pyrazin-2-amine] the IC50 was ≤ 20 nM.
For `CS(=O)(=O)N1CCC(Nc2nc3c(OCCC(F)(F)F)c(-c4cn[nH]c4)ncn3n2)CC1` [Example 46, N-(1-(Methylsulfonyl)piperidin-4-yl)-7-(1H-pyrazol-4-yl)-8-(3,3,3-trifluoropropoxy)-[1,2,4]triazolo[1,5-c]pyrimidin-2-amine], the IC50 was ≤ 20 nM.
`C[C@@H]1CN(S(C)(=O)=O)CC[C@@H]1Nc1nc2ccc(-c3cn[nH]c3)c(OC3CC3)n2n1` [Example 74, 5-Cyclopropoxy-N-((3R,4S)-3-methyl-1-(methylsulfonyl)piperidin-4-yl)-6-(1H-pyrazol-4-yl)-[1,2,4]triazolo[1,5-a]pyridin-2-amine] was tested, and the IC50 was ≤ 20 nM.
With `C[C@@H]1CN(S(=O)(=O)C2CC2)CC[C@@H]1Nc1nc2ccc(-c3cn[nH]c3)c(N3CCCCC3)n2n1` [Example 85, N-((3R,4S)-1-(Cyclopropylsulfonyl)-3-methylpiperidin-4-yl)-5-(piperidin-1-yl)-6-(1H-pyrazol-4-yl)-[1,2,4]triazolo[1,5-a]pyridin-2-amine] the IC50 was ≤ 20 nM.
In the case of `CCCCOc1c(-c2cn[nH]c2)ncc2nc(N[C@H]3CCN(S(C)(=O)=O)C[C@H]3C)nn12` [Example 103, 5-Butoxy-N-((3R,4S)-3-methyl-1-(methylsulfonyl)piperidin-4-yl)-6-(1H-pyrazol-4-yl)-[1,2,4]triazolo[1,5-a]pyrazin-2-amine], the IC50 is reported as ≤ 20 nM.
In the case of `CS(=O)(=O)N1CCC(Nc2nc3cnc(-c4cn[nH]c4)c(N4CC5CCC4C5)n3n2)CC1` (stereo not drawn) [Example 131, 5-(2-Azabicyclo[2.2.1]heptan-2-yl)-N-(1-(methylsulfonyl)piperidin-4-yl)-6-(1H-pyrazol-4-yl)-[1,2,4]triazolo[1,5-a]pyrazin-2-amine], the IC50 is reported as ≤ 20 nM.
For `CCCCOc1c(-c2cn[nH]c2)ncc2nc(NC3CCN(S(C)(=O)=O)CC3)nn12` [Example 106, 5-Butoxy-N-(1-(methylsulfonyl)piperidin-4-yl)-6-(1H-pyrazol-4-yl)-[1,2,4]triazolo[1,5-a]pyrazin-2-amine], the IC50 was ≤ 20 nM.
